BindingDB's records for patent US20250313563 (The Broad Institute, 2025)
“And” between values parts separate entries of the source, which are not always exact repeats. Equal values may be shown once.

Experiments:
[1] = target: Glycogen synthase kinase-3 beta (Homo sapiens, UniProt P49841); assay: TR-FRET Assay
Procedure, shortened: (§1)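 Kinase activity, measured after a 30-minute compound preincubation, was stopped with EDTA and quantified by TR-FRET using a Tb-labelled pSer641 antibody paired with streptavidin-d2.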

[2] = target: Glycogen synthase kinase-3 alpha (Homo sapiens, UniProt P49840); assay: TR-FRET Assay
Sequence of Glycogen synthase kinase-3 alpha (P49840 whole entry): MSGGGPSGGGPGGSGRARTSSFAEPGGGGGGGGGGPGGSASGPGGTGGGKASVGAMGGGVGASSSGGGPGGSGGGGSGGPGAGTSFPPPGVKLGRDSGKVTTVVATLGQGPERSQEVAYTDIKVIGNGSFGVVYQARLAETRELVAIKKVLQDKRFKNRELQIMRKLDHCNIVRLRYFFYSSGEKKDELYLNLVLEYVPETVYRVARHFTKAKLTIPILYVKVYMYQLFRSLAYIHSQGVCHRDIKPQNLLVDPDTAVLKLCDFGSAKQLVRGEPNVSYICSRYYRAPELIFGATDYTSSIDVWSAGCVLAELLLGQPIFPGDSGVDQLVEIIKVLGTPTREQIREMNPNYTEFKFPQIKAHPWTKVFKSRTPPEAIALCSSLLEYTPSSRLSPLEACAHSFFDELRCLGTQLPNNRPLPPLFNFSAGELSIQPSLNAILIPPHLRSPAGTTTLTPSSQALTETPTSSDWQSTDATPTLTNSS
Procedure, shortened: as §1

Sequence of Glycogen synthase kinase-3 beta (P49841 whole entry): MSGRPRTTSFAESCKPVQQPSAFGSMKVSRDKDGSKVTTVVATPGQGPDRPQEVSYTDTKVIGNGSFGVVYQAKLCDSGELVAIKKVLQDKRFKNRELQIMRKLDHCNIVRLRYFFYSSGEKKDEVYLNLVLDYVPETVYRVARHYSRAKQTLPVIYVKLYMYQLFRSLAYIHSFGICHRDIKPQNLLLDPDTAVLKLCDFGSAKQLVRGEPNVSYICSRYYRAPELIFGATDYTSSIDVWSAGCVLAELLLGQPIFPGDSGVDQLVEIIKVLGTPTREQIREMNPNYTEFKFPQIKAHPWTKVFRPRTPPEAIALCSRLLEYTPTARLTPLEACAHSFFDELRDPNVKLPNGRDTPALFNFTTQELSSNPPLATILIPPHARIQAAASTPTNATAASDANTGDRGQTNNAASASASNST

IC50 [1]	IC50 [2]	SMILES
1000 to 5000 nM	100 to 1000 nM	CC[C@]1(c2cccc([C@H](C)c3ncccn3)c2)C2=CN=NC2NC2=C1C(=O)CC(C)(C)C2 (stereo partly drawn) [US20250313563, Compound 948057]
< 100 nM and 1000 to 5000 nM	< 100 nM	CC[C@]1(c2cccc(-c3ccnn3C)c2)C2=CN=NC2NC2=C1C(=O)CC(C)(C)[C@H]2F (stereo partly drawn) [US20250313563, Compound 957507]
> 5000 nM	1000 to 5000 nM	CC[C@@]1(c2cccc(-c3ccncn3)c2)C2=CN=NC2NC2=C1C(=O)CC(C)(C)C2 (stereo partly drawn) [US20250313563, Compound 810489]
100 to 1000 nM	< 100 nM	CC[C@@]1(c2cccc(C3=C4CC=C(C)N=C4N=CC3)c2)C2=CN=NC2NC2=C1C(=O)NC(C)(C)C2 (stereo partly drawn) [US20250313563, Compound 948143]
> 5000 nM	1000 to 5000 nM	CC[C@]1(c2cccc(-c3ccnc4c3CCC4)c2)C2=CN=NC2NC2=C1C(=O)CC(C)(C)C2 (stereo partly drawn) [US20250313563, Compound 945619]
100 to 1000 nM	< 100 nM	CCC1(c2cccc(-c3cc(C)ncc3OC)c2)C2=CN=NC2NC2=C1C(=O)CC(C)(C)C2 (stereo not drawn) [US20250313563, Compound 945468]
< 100 nM	< 100 nM	CC[C@@]1(c2cccc(-c3cncn3C)c2)C2=CN=NC2NC2=C1C(=O)CC(C)(C)C2 (stereo partly drawn) [US20250313563, Compound 945605]
100 to 1000 nM	< 100 nM	CCC1(c2cccc(C(F)(F)F)c2)C2=CN=NC2NC2=C1C(=O)CC(C)C2 (stereo not drawn) [US20250313563, Compound 801397]
100 to 1000 nM	< 100 nM	CC[C@@]1(c2cccc(-c3cnn(Cc4cccc(C(F)(F)F)c4)c3)c2)C2=CN=NC2NC2=C1C(=O)NC(C)(C)C2 (stereo partly drawn) [US20250313563, Compound 951848]
< 100 nM	< 100 nM	CCN(c1cccnc1)c1cccc(C2(CC)C3=CN=NC3NC3=C2C(=O)CC(C)(C)C3)c1 (stereo not drawn) [US20250313563, Compound 885331]
< 100 nM and 100 to 1000 nM	< 100 nM	CC[C@]1(c2cccc(Cl)c2)C2=C(CC(C)(C)CC2=O)NC2N=NC(C(F)(F)F)=C21 (stereo partly drawn) [US20250313563, Compound 801308]
> 5000 nM	1000 to 5000 nM	CC[C@]1(c2cccc(-c3ccnn3C)c2)C2=CN=NC2NC2=C1C(=O)NC1(CCS(=O)(=O)CC1)C2 (stereo partly drawn) [US20250313563, Compound 949400]
> 5000 nM	> 5000 nM	CC[C@]1(c2ccccc2)C2=CN=NC2NC2=C1C(=O)[C@H](F)C(C)(C)C2 (stereo partly drawn) [US20250313563, Compound 957406]
> 5000 nM	100 to 1000 nM	CC[C@]1(c2ccccc2)C2=CN=NC2NC2=C1C(=O)C(O)C(C)(C)C2 (stereo partly drawn) [US20250313563, Compound 946056]
100 to 1000 nM	100 to 1000 nM	CCC1(c2cccc(N3CCC[C@@H]3C)c2)C2=CN=NC2NC2=C1C(=O)CC(C)(C)C2 (stereo partly drawn) [US20250313563, Compound 885188]
> 1670 nM	100 to 1000 nM	CCC1(c2cccc(N3CCOCC3)c2)C2=CN=NC2NC2=C1C(=O)CC(C)(C)C2 (stereo not drawn) [US20250313563, Compound 801318]
1000 to 5000 nM and > 5000 nM	100 to 1000 nM and > 5000 nM	CC[C@]1(c2ccccc2)C2=CN=NC2NC2=C1C(=O)CC(C)(C)[C@H]2F (stereo partly drawn) [US20250313563, Compound 957197]
100 to 1000 nM	< 100 nM	CCC1(c2cccc(-c3ccnc(C)c3C)c2)C2=CN=NC2NC2=C1C(=O)NC(C)(C)C2 (stereo not drawn) [US20250313563, Compound 945994]
1000 to 5000 nM	100 to 1000 nM	CC[C@@]1(c2cccc(-c3ccncc3CO)c2)C2=CN=NC2NC2=C1C(=O)CC(C)(C)C2 (stereo partly drawn) [US20250313563, Compound 945479]
> 5000 nM	> 5000 nM	CC[C@]1(c2cccc(-c3ccnnc3)c2)C2=CN=NC2NC2=C1C(=O)CC(C)(C)C2 (stereo partly drawn) [US20250313563, Compound 929443]

The remaining lines, values behind:

SMILES	IC50 [1]	IC50 [2]
CC1(C)CC(=O)C2=C(C1)NC1=C(CN=N1)[C@@]21COC2(CN(C(=O)[C@@H]3CC3(F)F)C2)C1 [US20250313563, Compound 948221]	100 to 1000 nM	100 to 1000 nM
CC[C@@]1(c2cccc(C(F)(F)F)c2)C2=CN=NC2NC2=C1C(=O)N(C)C[C@H]2C (stereo partly drawn) [US20250313563, Compound 883982]	> 5000 nM	> 5000 nM
CC[C@]1(c2cccc(C(F)(F)F)c2)C2=CN=NC2NC2=C1C(=O)N(c1cnsc1)CC2 (stereo partly drawn) [US20250313563, Compound 951733]	100 to 1000 nM	< 100 nM
CC1(C)CC(=O)C2=C(C1)NC1=C(CN=N1)C21CCc2c(F)cccc21 (stereo not drawn) [US20250313563, Compound 801357]	> 1670 nM	100 to 1000 nM
CC[C@@]1(c2cccc(OC)c2)C2=C(CC(C)(C)NC2=O)NC2N=NC(C)=C21 (stereo partly drawn) [US20250313563, Compound 949337]	1000 to 5000 nM	100 to 1000 nM
CC1(C)CC(=O)C2=C(C1)NC1=C(CN=N1)C21CN(C2COC2)C1 [US20250313563, Compound 912076]	1000 to 5000 nM	100 to 1000 nM
CCC1(c2cccc(Oc3ncccn3)c2)C2=C(CC(C)(C)NC2=O)NC2N=NC(Cl)=C21 (stereo not drawn) [US20250313563, Compound 950318]	< 100 nM	< 100 nM
CC[C@@]1(c2cccc(-c3ccnc(C)c3)c2)C2=C(CC(C)(C)NC2=O)NC2N=NC(C(F)(F)F)=C21 (stereo partly drawn) [US20250313563, Compound 948774]	< 100 nM	< 100 nM
CC1(C)CC(=O)C2=C(C1)NC1=C(CN=N1)C21CSC1 [US20250313563, Compound 889567]	100 to 1000 nM	< 100 nM
CC1(C)CC(=O)C2=C(C1)NC1=C(CN=N1)[C@]21C[C@@H](OCc2ccccc2)C1 [US20250313563, Compound 909211]	100 to 1000 nM	< 100 nM
CC1(C)CC(=O)C2=C(C1)NC1N=NC(CC(F)(F)F)=C1C21CCc2c(F)cccc21 (stereo not drawn) [US20250313563, Compound 810590]	100 to 1000 nM	100 to 1000 nM
CC1(C)CC(=O)C2=C(C1)NC1=C(CN=N1)C21CCN(CC(F)(F)F)CC1 [US20250313563, Compound 874528]	100 to 1000 nM	< 100 nM
C[C@@H]1C[C@H](C)C(=O)C2=C1NC1=C(CN=N1)C21CCOCC1 [US20250313563, Compound 893316]	100 to 1000 nM	< 100 nM
CC1(C)CC(=O)C2=C(C1)NC1=C(CN=N1)[C@]21COC2(CN(C(=O)C3CCCC3)C2)C1 [US20250313563, Compound 943958]	1000 to 5000 nM	100 to 1000 nM
CC(C)(C)CC1N=NC2=C1[C@](C)(c1cccc(S(=O)(=O)CC3CC3)c1)C1=C(CC(C)(C)NC1=O)N2 (stereo partly drawn) [US20250313563, Compound 108005]	100 to 1000 nM	100 to 1000 nM
CC[C@@]1(c2cccc(C(F)(F)F)c2)C2=C(N=NC2)NC2=C1C(=O)CC2 [US20250313563, Compound 951566]	> 5000 nM	1000 to 5000 nM
CC[C@@]1(c2cccc(-c3ccnc(C)c3)c2)C2=C(CC(C)(C)NC2=O)NC2N=NC(Cl)=C21 (stereo partly drawn) [US20250313563, Compound 949422]	< 100 nM and 1000 to 5000 nM	< 100 nM and 100 to 1000 nM
CC1(C)CC(=O)C2=C(C1)NC1=C(CN=N1)[C@]21CCO[C@H](C(F)(F)F)C1 [US20250313563, Compound 884023]	> 5000 nM	1000 to 5000 nM
CC[C@@]1(c2ccccc2)C2=CN=NC2NC2=C1C(=O)[C@@H](C)C[C@@H]2C (stereo partly drawn) [US20250313563, Compound 865198]	1000 to 5000 nM	100 to 1000 nM
